From publication PMC3410885, “6-Arylpyrido[2,3-d]pyrimidines as Novel ATP-Competitive Inhibitors of Bacterial D-Alanine:D-Alanine Ligase” (PLoS ONE, 2012)
Values after ≈ are worked out from the molar mass of the structure shown. Where two headings read alike, the source gives them in different places.

Key:
DdlB = target: T1, DdlB (Escherichia coli, UniProt P07862); assay: Surface plasmon resonance binding to immobilised DdlB; details: steady-state affinity model; 25°C; 50 mM Hepes, 150 mM NaCl, 5% DMSO; read-out: KD (SPR)
T1 construct: polyhistidine (His) tag (N); made in house; host or cells: E. coli BL21(λDE3), vector pQE-30 UA (Qiagen)
Procedure: The binding of the compounds 11, 13, 14, 24, 27, 33, and 35 to the target enzyme was confirmed using surface plasmon resonance (SPR) (Figure 10). Experiments were performed at conditions that enable long term stability of the enzyme. […] The enzyme was covalently attached to the surface of a sensor chip CM5 and compounds were titrated over the surface. The binding of all the compounds was characterised by fast association and dissociation rates. Equilibrium affinity constants, estimated from the steady-state binding levels are in agreement with enzymatic studies and ITC. In addition, the binding of other compounds was tested but insufficient solubility at higher concentrations of analytes in the running buffer precluded analysis.
Figure 10 SPR analysis of compounds binding to DdlB. Different concentrations of compounds were tested for the binding (left panels in all cases). The binding curves (right panels) were generated by ploting steady-state response levels, i.e. at the end of the association phase, vs concentration of the injected compound. For each compound 3–5 independent titrations were performed.
The binding constants were obtained by using a Biacore T100 (Biacore, GE Healthcare, USA). […] Two 1 min injections of 50 μg/ml DdlB diluted in 10 mM Na-acetate, pH 4.0 were applied on the second flow cell. The first flow cell was left unmodified and served as a control for non-specific binding of tested compounds. The remaining active groups on the surface of both flow cells were deactivated with a 7-min injection of ethanolamine. The level of immobilized enzyme was around 10000 response units.
Each analyte was titrated, with 3 or 4 repetitions, using different concentrations according to their solubility in running buffer (50 mM Hepes, 150 mM NaCl, 5% DMSO, pH 7.4), usually from 0,781 μM to 500 μM. One concentration was repeated at the end of the assay in each dilution series, in order to check the surface stability and repeatability. The association lasted 60 seconds at a flow-rate 30 μl/min. No regeneration was needed. All experiments were performed at 25°C. Sensorgrams were double referenced by subtracting the signal obtained in the empty flow cell and the injection of the buffer. The steady-state response levels were fitted using the Steady State Affinity model in Biacore T100 Evaluation software.

E. coli DdlB = target: T2, E. coli DdlB (Escherichia coli, UniProt P07862); assay: Colorimetric malachite green inhibition assay of DdlB; format: biochemical; details: for IC50: malachite green assay, 700 μM D-Ala, 500 μM ATP, 37°C, 20 min, read-out: inhibitory activity on DdlB: IC50
T2 construct: polyhistidine (His) tag (N); made in house; host or cells: E. coli BL21(λDE3), vector pQE-30 UA (Qiagen)
Procedure: All of the synthesized 6-arylpyrido[2,3-d]pyrimidines 11–36 were assayed for in vitro inhibitory activity on E. coli DdlB by detecting orthophosphate generated during the enzymatic reaction using a Malachite green assay.
Inhibition of DdlB was measured at different inhibitor and ATP concentrations in order to determine Ki values and the mode-of-action of both compounds.
The target compounds were tested for their ability to inhibit the D-Ala-adding activity of DdlB ligase with the colorimetric malachite green method in which orthophosphate generated during the reaction is measured. Each compound was tested in duplicate at 100, 250 or 500 μM in a mixture, final volume 50 μL, containing 50 mM Hepes (pH 8.0), 5 mM MgCl2, 10 mM (NH4)2SO4, 10 mM KCl, 700 μM D-Ala, 500 μM ATP, purified His-tagged DdlB (diluted in 50 mM Hepes (pH 7.2) and 1 mM DTT) and the test compound dissolved in DMSO. The final concentration of DMSO was 5% (v/v). The reaction mixture was incubated at 37°C for 20 min, then quenched with 100 μL of Biomol reagent and absorbance at 650 nm was measured after 5 min. To exclude possible promiscuous inhibitors, all compounds were tested in the presence of Triton-114 (0.005%). Residual activities were calculated relative to control assays without the compounds and with DMSO.

E. coli AB734 = assay: MIC by broth microdilution, E. coli AB734; format: cell-based; details: for MIC: Escherichia coli; for MIC AB734 +PMBN: with polymyxin B nonapeptide (4 μg/ml)
Procedure: (§1) Selected DdlB inhibitors were tested for their antibacterial activity against two E. coli strains E. coli 1411 and E. coli AB734 (Table 2). […] Additionally, growth inhibition of efflux pump-deficient strains SM1411 (acrAB deficient derivative of 1411) and ES100 (tolC deficient derivative of AB734) was measured, and MICs were repeated for each strain in the presence of polymyxin B nonapeptide (PMBN) to assess the impact of outer-membrane permeability on antimicrobial activity.
(§2) Minimum inhibitory concentrations (MICs) were determined by broth microdilution against E. coli 1411, SM1411 (acrAB deficient derivative of 1411), AB734 and ES100 (tolC deficient derivative of AB734) according to CLSI guidelines. MICs were repeated for each strain in the presence of polymyxin B nonapeptide (4 μg/ml) to assess the impact of outer-membrane permeability on antimicrobial activity.

E. coli 1411 = assay: MIC by broth microdilution, E. coli 1411; format: cell-based; details: for MIC: Escherichia coli, 1411, read-out: MIC 1411; for MIC 1411 +PMBN: with polymyxin B nonapeptide (4 μg/ml)
Procedure: as §1, §2

[1] = test system: SM1411 (acrAB deficient derivative of 1411); assay: MIC by broth microdilution, SM1411; format: cell-based, E. coli; details: for MIC: Escherichia coli, read-out: MIC SM1411 (acrAB); for MIC SM1411 +PMBN: with polymyxin B nonapeptide (4 μg/ml)
Procedure: as §1, §2

[2] = test system: ES100 (tolC deficient derivative of AB734); assay: MIC by broth microdilution, ES100; format: cell-based, E. coli; details: for MIC: Escherichia coli, read-out: MIC ES100 (tolC); for MIC ES100 +PMBN: with polymyxin B nonapeptide (4 μg/ml)
Procedure: as §1, §2

[3] = test system: E. coli strains (1411, AB734, SM1411, ES100); assay: Antibacterial activity stated for the E. coli strains together; format: cell-based; details: for antibacterial activity (in words): efflux-deficient, permeabilised cells
Procedure: as §1, §2

| melting point [°C] | Compound | IC50 (E. coli DdlB) [µM] | MIC AB734 +PMBN (E. coli AB734) [µg/mL] | MIC (E. coli 1411) [µg/mL] | MIC 1411 +PMBN (E. coli 1411) [µg/mL] | MIC [1] [µg/mL] | MIC SM1411 +PMBN [1] | MIC [2] [µg/mL] | MIC ES100 +PMBN [2] | further results |
| --- | --- | --- | --- | --- | --- | --- | --- | --- | --- | --- |
|  | COc1cc(OC)cc(-c2cc3cnc(N)nc3nc2N)c1 [Compound 13, 6-(3,5-dimethoxyphenyl)pyrido[2,3-d]pyrimidine-2,7-diamine] | 908 | >256 | > 256 | >256 | > 256 | 128 µg/mL (≈ 431 µM) | > 256 | 64 µg/mL (≈ 215 µM) | MIC (E. coli AB734; AB734, read-out: MIC AB734): > 256 µg/mL |
| 146 to 148 | COc1cc(OC)cc(-c2cc3cnc(NCCCN4CCOCC4)nc3nc2N)c1 [Compound 15, 6-(3,5-dimethoxyphenyl)-N2-(3-morpholinopropyl)pyrido[2,3-d]pyrimidine-2,7-diamine] |  |  |  |  |  |  |  |  |  |
|  | COc1cc(OC)cc(-c2cc3cnc(NCCCN4CCOCC4)nc3nc2NC(=O)NC(C)(C)C)c1 [Compound 16, 1-tert-butyl-3-(6-(3,5-dimethoxyphenyl)-2-(3-morpholinopropylamino)pyrido[2,3-d]pyrimidin-7-yl)urea] | 133 | >256 | > 256 | >256 | > 256 | 128 µg/mL (≈ 244 µM) | > 256 | 128 µg/mL (≈ 244 µM) | MIC (E. coli AB734; AB734, read-out: MIC AB734): > 256 µg/mL; antibacterial activity (in words) [3]: weak antibacterial activity; fold improved IC50 against DdlB compared to lead compound 33 (E. coli DdlB; ratio of IC50 values, 16 against 33): 3.4 fold |
| 92 to 95 | COc1cc(OC)cc(-c2cc3cnc(NCCCN(C)C)nc3nc2N)c1 [Compound 17, 6-(3,5-dimethoxyphenyl)-N2-(3-(dimethylamino)propyl)pyrido[2,3-d]pyrimidine-2,7-diamine] |  |  |  |  |  |  |  |  |  |
| > 300 | Nc1ncc2cc(-c3cc(C(F)(F)F)cc(C(F)(F)F)c3)c(N)nc2n1 [Compound 18, 6-(3,5-bis(trifluoromethyl)phenyl)pyrido[2,3-d]pyrimidine-2,7-diamine] |  |  |  |  |  |  |  |  |  |
|  | CC(C)(C)NC(=O)Nc1nc2nc(N)ncc2cc1-c1cc(C(F)(F)F)cc(C(F)(F)F)c1 [Compound 19, 1-(2-amino-6-(3,5-bis(trifluoromethyl)phenyl)pyrido[2,3-d]pyrimidin-7-yl)-3-tert-butylurea] | 260 | >256 | > 256 | >256 | > 256 | >256 µg/mL | > 256 | 64 µg/mL (≈ 135 µM) | MIC (E. coli AB734; AB734, read-out: MIC AB734): > 256 µg/mL; antibacterial activity (in words) [3]: weak antibacterial activity |
| > 300 | Nc1ncc2cc(-c3cc(F)cc(F)c3)c(N)nc2n1 [Compound 20, 6-(3,5-difluorophenyl)pyrido[2,3-d]pyrimidine-2,7-diamine] |  |  |  |  |  |  |  |  |  |
|  | Nc1ncc2cc(-c3c(Cl)cccc3Cl)c(N)nc2n1 [Compound 26, 6-(2,6-dichlorophenyl)pyrido[2,3-d]pyrimidine-2,7-diamine] | 529 |  |  |  | 2 (≈ 6.53 µM) | 0,5 μg/ml | 1 (≈ 3.27 µM) | 0,25 μg/ml |  |
| 124 to 127 | Nc1nc2nc(NCCCN3CCOCC3)ncc2cc1-c1c(Cl)cccc1Cl [Compound 28, 6-(2,6-dichlorophenyl)-N2-(3-morpholinopropyl)pyrido[2,3-d]pyrimidine-2,7-diamine] |  |  |  |  |  |  |  |  |  |
| 241 to 244 | CN(C)CCCNc1ncc2cc(-c3c(Cl)cccc3Cl)c(N)nc2n1 [Compound 30, 6-(2,6-dichlorophenyl)-N2-(3-(dimethylamino)propyl)pyrido[2,3-d]pyrimidine-2,7-diamine] |  |  |  |  |  |  |  |  |  |
| > 300 | Nc1ncc2cc(-c3c(F)cccc3Cl)c(N)nc2n1 [Compound 31, 6-(2-chloro-6-fluorophenyl)pyrido[2,3-d]pyrimidine-2,7-diamine] |  |  |  |  |  |  |  |  |  |
| > 300 | CC(C)(C)NC(=O)Nc1nc2nc(N)ncc2cc1-c1c(F)cccc1Cl [Compound 32, 1-(2-amino-6-(2-chloro-6-fluorophenyl)pyrido[2,3-d]pyrimidin-7-yl)-3-tert-butylurea] |  |  |  |  |  |  |  |  |  |
|  | CC(C)(C)NC(=O)Nc1nc2nc(N)ncc2cc1-c1c(Br)cccc1Br [Compound 34, 1-(2-amino-6-(2,6-dibromophenyl)pyrido[2,3-d]pyrimidin-7-yl)-3-tert-butylurea] | 583 | 32 (≈ 64.8 µM) | > 256 | 32 (≈ 64.8 µM) | > 256 | 4 µg/mL (≈ 8.09 µM) | 4 (≈ 8.09 µM) | 0,5 μg/ml | MIC (E. coli AB734; AB734, read-out: MIC AB734): > 256 µg/mL; antibacterial activity (in words) [3]: weak antibacterial activity |
| > 300 | CC(C)(C)NC(=O)Nc1nc2nc(N)ncc2cc1-c1ccc2c(c1)OCO2 [Compound 36, 1-(2-amino-6-(benzo[d][1,3]dioxol-5-yl)pyrido[2,3-d]pyrimidin-7-yl)-3-tert-butylurea] |  |  |  |  |  |  |  |  |  |

| Compound | melting point [°C] | IC50 (E. coli DdlB) [µM] | MIC AB734 +PMBN (E. coli AB734) [µg/mL] | MIC (E. coli 1411) [µg/mL] | MIC 1411 +PMBN (E. coli 1411) [µg/mL] | MIC [1] [µg/mL] | MIC SM1411 +PMBN [1] | MIC [2] [µg/mL] | MIC ES100 +PMBN [2] | further results |
| --- | --- | --- | --- | --- | --- | --- | --- | --- | --- | --- |
| Nc1ncc2cc(-c3ccccc3)c(N)nc2n1 [Compound 11, 6-phenylpyrido[2,3-d]pyrimidine-2,7-diamine] | > 300 | 1140 |  |  |  |  |  |  |  | Kd (DdlB): 150 ± 33.1 µM |
| Nc1ncc2cc(-c3cc(Cl)cc(Cl)c3)c(N)nc2n1 [Compound 22, 6-(3,5-dichlorophenyl)pyrido[2,3-d]pyrimidine-2,7-diamine] | > 300 |  |  |  |  |  |  |  |  | MIC ([3]; Escherichia coli, read-out: MICs against all strains): > 256 µg/mL |
| CC(C)(C)NC(=O)Nc1nc2nc(N)ncc2cc1-c1cc(Cl)cc(Cl)c1 [Compound 23, 1-(2-amino-6-(3,5-dichlorophenyl)pyrido[2,3-d]pyrimidin-7-yl)-3-tert-butylurea] | 179 to 182 | 383 | >256 | > 256 | >256 | > 256 | 32 µg/mL (≈ 79 µM) | > 256 | 16 µg/mL (≈ 39.5 µM) | MIC (E. coli AB734; AB734, read-out: MIC AB734): > 256 µg/mL; antibacterial activity (in words) [3]: weak antibacterial activity |
| Nc1ncc2cc(-c3c(F)cccc3F)c(N)nc2n1 [Compound 24, 6-(2,6-difluorophenyl)pyrido[2,3-d]pyrimidine-2,7-diamine] | > 300 | 1110 | 16 (≈ 58.6 µM) | 64 (≈ 234 µM) | 16 (≈ 58.6 µM) | 64 (≈ 234 µM) | 8 µg/mL (≈ 29.3 µM) | 16 (≈ 58.6 µM) | 8 µg/mL (≈ 29.3 µM) | MIC (E. coli AB734; AB734, without PMBN, read-out: MIC AB734): 64 µg/mL (≈ 234 µM); MIC AB734 (E. coli AB734; without PMBN): 64 µg/mL (≈ 234 µM); MIC 1411 (E. coli 1411; without PMBN): 64 µg/mL (≈ 234 µM); Kd (DdlB): 103 ± 7.8 µM |
